Reference: ChEMBL document CHEMBL1949542, “Reductive activation of 5-fluorodeoxyuridine prodrug possessing azide methyl group by hypoxic X-irradiation” (Bioorg Med Chem Lett, 2012)
Active and inactive are the calls of the source. No cut-off for these calls is given here.

Assays:
Assay type in all cases: functional, cell-based
[1] = tested on: A549; experiment: Cytotoxicity against human A549 cells assessed as cell viability after 72 hrs by WST-8 assay; conditions: A549, 72 h
[2] = tested on: A549; experiment: Cytocidal activity against human A549 cells assessed as cell viability at 200 nM compound X-irradiated under hypoxic conditions measured after 72 hrs by WST-8 assay
[3] = tested on: A549; experiment: Cytotoxicity against human A549 cells assessed as cell viability at 200 nM compound X-irradiated under aerobic conditions measured after 72 hrs by WST-8 assay
[4] = tested on: A549; experiment: Cytotoxicity against human A549 cells assessed as cell viability under hypoxic condition at 100 nM after 72 hrs by WST-8 assay

Work on O=c1[nH]c(=O)n([C@H]2C[C@H](O)[C@@H](CO)O2)cc1F [FLOXURIDINE] yielded an IC50 [1] of 47 nM.

With [N-]=[N+]=NCn1c(=O)c(F)cn([C@H]2C[C@H](O)[C@@H](CO)O2)c1=O the IC50 [1] was 1470 nM, the Activity [2] was “inactive” and the Activity [3] was “inactive”. For the same compound, the Activity [4] was “inactive”.
